This series is described as follows: Pharmacokinetic parameters of i.v. tacrolimus in the presence of Q-Captisol in male Lewis rats. The format is in vivo. As to conditions: rat, whole blood, iv, tacrolimus 1 mg/kg i.v.; for AUC / Cmax / Vd / clearance / half-life: male, Lewis, 1 mg/kg. How it is done:
Male Lewis rats (Charles River Laboratories; 8-9 weeks old; mean weights 282-285 gm) are randomly assigned to treatment groups by a computerized body weight stratification procedure. Quercetin-Sulfobutylether-7-β-cyclodextrin (Q-Captisol) is prepared as a dosing solution using Captisol (B-cyclodextrin-sulfobutyl ether sodium salt; CyDex Inc.) along with 1 molar equivalent of sodium hydroxide. Q-Captisol is administered intraperitoneally (i.p.) at doses of 0, 25, 150, or 300 mg/kg (N=9 rats/dose). Tacrolimus (1 mg/kg i.v.) is dosed at 0.2 ml/kg directly from Prograf 5 mg/ml clinical dosing solutions. […] Whole blood is collected in EDTA tubes from the retro-orbital sinus under 60:40 CO2:O2 anesthesia at 9 time periods using N=3 animals per time period: 5, 15, and 30 min; 1, 2, 3, 6, 8, and 24 hr after administration of tacrolimus. To avoid excessive blood loss from individual animals, 3 blood samples per rat are collected at specified time intervals, so the final samples for analysis contained N=3 blood samples per time period. Whole blood samples are froze on dry ice and stored frozen at −80° C. prior to analysis.
Thawed whole blood (200 μl) is transferred to a separate glass tube with 100 μl of ascomycin (Internal Standard: 100 ng/ml in 10% methanol) and 20 μl of 10% methanol. Samples are treated with 400 μl of 0.1 M zinc sulfate and then 100 μl of acetonitrile to precipitate proteins. Samples are vortexed, then centrifuged at 4000 rpm for 5 min. 500 μl of supernatant is transferred to a clean glass tube containing 1000 μl of water and vortexed thoroughly. Mixtures are loaded onto a 100 mg C18 cartridge (SPE column) preconditioned with 1 ml of methanol, followed by 1 ml of water. The cartridge is washed 2× with 1 ml water, followed by 100 μl methanol. Tacrolimus and Internal Standard are eluted with 500 μl of methanol into an HPLC vial containing 1000 μl of 10 mM ammonium acetate. Samples are vortexed, then centrifuged at 4000 rpm for 10 min. A 10 μl aliquot of the clarified supernatant is injected directly onto LC/MS/MS for analysis. Calibration standards are prepared in blank rat whole blood at 1, 2, 5, 5, 10, 25, 50, 62.5, and 75 ng/ml and processed as described for the samples from rats dosed with tacrolimus.
The tacrolimus concentrations in plasma are determined using validated assay methods via an LC/MS/MS analytical technique. Major pharmacokinetic parameters, including area under the concentration versus time curve from time zero to the time of last measurable concentration (AUCt), area under the concentration versus time curve from time zero to infinite time (AUCinf), maximum observed concentration (Cmax), time to reach maximum observed blood or plasma concentration (Tmax), apparent terminal elimination rate constant (Kcl), clearance (CL), and half-life (T1/2), are determined from the plasma concentration data. […] These changes are believed to be caused by drug re-distribution from non-targeted organs to systemic circulation.

Where [1] appears, read: Q-Captisol Dose 0 mg/kg i.p. 30 min before.
[2] abbreviates: Q-Captisol Dose 25 mg/kg i.p. 30 min before.
[3] abbreviates: Q-Captisol Dose 150 mg/kg i.p. 30 min before.
The mark [4] stands for this setting: Q-Captisol Dose 300 mg/kg i.p. 30 min before.

In general, AUC refers to the area under the concentration-time curve, a measure of exposure. As usually defined, the Cmax is the peak of the concentration-time curve. By half-life is commonly meant how long it takes for the measured level to halve. For orientation: Tmax means the time at which the peak concentration occurs.

Take `C=CC[C@@H]1/C=C(\C)C[C@H](C)C[C@H](OC)[C@H]2O[C@@](O)(C(=O)C(=O)N3CCCC[C@H]3C(=O)O[C@H](/C(C)=C/[C@@H]3CC[C@@H](O)[C@H](OC)C3)[C@H](C)[C@@H](O)CC1=O)[C@H](C)C[C@@H]2OC` [tacrolimus]: under setting [1], the AUC is 645 ng·h/mL, the highest concentration (Cmax) turned out to be 418 ng/mL, the Vd was 18.6 L/kg and the clearance is 22.9 mL/min/kg. Under setting [1], the half-life was 9.4 h. Moreover, under setting [2], the AUC is 635 ng·h/mL, the Cmax was found to be 426 ng/mL, the Vd stood at 16 L/kg and the clearance was 23.3 mL/min/kg. Besides, the half-life under setting [2] was 7.9 h. In addition, under setting [3], the AUC is 980 ng·h/mL, the Cmax turned out to be 781 ng/mL, the Vd came to 10.9 L/kg and the clearance is 15.5 mL/min/kg. Also, under setting [3], the half-life is 8.1 h and the Tmax turned out to be 4.98 min. In addition, under setting [4], the AUC came out at 1240 ng·h/mL, the Cmax is 877 ng/mL, the Vd was determined as 8.2 L/kg and the clearance was 12.2 mL/min/kg. In addition, the half-life under setting [4] was 7.7 h.

Source of the values: patent publication US20090082400A1, “SOLUBLE PYRONE ANALOGS METHODS AND COMPOSITIONS” (priority 2007, published 2009).
